From PMC10050424, “Structural basis of the substrate recognition and inhibition mechanism of Plasmodium falciparum nucleoside transporter PfENT1” (Nature Communications, 2023)
Positions count from the first letter of the chain named.

Assays:
[1] = target: T1, PfENT1 mutant S49A (Plasmodium falciparum, UniProt Q8IDM6, S49A); experiment: ITC binding to PfENT1 mutant S49A; details: Fig. 3c
T1 construct: 10xHis (N); made in house; host or cells: Sf9 insect cells (baculovirus)
T1 sequence (Q8IDM6 1-422 S49A): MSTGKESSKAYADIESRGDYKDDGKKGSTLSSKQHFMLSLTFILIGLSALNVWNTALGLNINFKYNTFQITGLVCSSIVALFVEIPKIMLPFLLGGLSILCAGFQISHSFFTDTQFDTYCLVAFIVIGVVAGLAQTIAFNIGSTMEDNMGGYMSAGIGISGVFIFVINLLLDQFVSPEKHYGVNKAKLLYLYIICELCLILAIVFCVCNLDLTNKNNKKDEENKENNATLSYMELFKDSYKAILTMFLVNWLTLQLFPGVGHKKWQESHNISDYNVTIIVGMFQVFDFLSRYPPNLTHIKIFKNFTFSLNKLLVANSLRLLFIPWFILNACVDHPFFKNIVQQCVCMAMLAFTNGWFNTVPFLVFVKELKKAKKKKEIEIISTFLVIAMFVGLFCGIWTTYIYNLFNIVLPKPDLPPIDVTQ
Procedure: (§1) For the in vitro binding assay, Sf9 cells were solubilized in lysis buffer containing 2% (w/v) n-dodecyl-β-D-maltopyranoside (DDM, Anatrace) and protease inhibitor cocktail (0.8 μM aprotinin, 2 μM pepstatin, and 5 μg/ml leupeptin) at 4 °C for 2 h. The soluble supernatant was collected via centrifugation and incubated with Ni-NTA resin (QIAGEN) at 4 °C for 1 h. The resin was washed and eluted using lysis buffer containing 0.05% (w/v) DDM and 30 mM/300 mM imidazole. The protein was further purified by size-exclusion chromatography (Superdex 200 Increase 10/300; GE Healthcare) in buffer containing 25 mM MES (pH 6.0), 150 mM NaCl, and 0.05% (w/v) DDM. The peak fractions were pooled and concentrated to 10~50 μM for the nucleoside-binding assay.
(§2) The binding affinity between wild-type and mutant PfENT1 with nucleosides and GSK4 was measured using a Micro-Cal ITC200 (Malvern). All proteins were prepared in 25 mM MES (pH 6.0), 150 mM NaCl, and 0.05% (w/v) DDM. Nucleosides (5~10 mM) and GSK4 (100-200 μM) dissolved in the same buffer were titrated against 20–50 μM PfENT1 proteins at 25 °C. PEAQ-ITC analysis software (MicroCal) was employed to analyze the data. All titrations were repeated three times.

[2] = target: T2, PfENT1 mutant D287A (Plasmodium falciparum, UniProt Q8IDM6, D287A); experiment: ITC binding to PfENT1 mutant D287A; details: Fig. 3c
T2 construct: 10xHis (N); made in house; host or cells: Sf9 insect cells (baculovirus)
T2 sequence (Q8IDM6 1-422 D287A): T1 sequence (Q8IDM6 1-422 S49A) with A49S, D287A
Procedure: as §1, §2

[3] = target: T3, PfENT1 R291A (Plasmodium falciparum, UniProt Q8IDM6, R291A); experiment: Inosine uptake assay, yeast expressing PfENT1 R291A; type: cell-based; details: Fig. 3d, construct R291A
T3 construct: expressed in transfected cells; host or cells: S. cerevisiae BY4741, FUI1 deleted, PfENT1 mutant knock-in under the TEF1 promoter
Text: (§3) Codon-optimized PfENT1 (for expression in yeast) was synthesized by Sangon Biotech. The carboxyl terminus of PfENT1 was HA-tagged through PCR. The TEF1p promoter and PGK1t terminator were amplified from BY4741 genomic DNA. Overlap PCR was applied to generate the gene overexpression cassette of PfENT1 (TEF1p promoter-PfENT1-PGK1t terminator). The two 600-bp homologous arms corresponding to the upstream and downstream regions of the FUI1 gene were amplified from BY4741 genomic DNA. The gene cassette of the ‘TEF1p promoter-PfENT1-PGK1t terminator’ together with the two homologous arms was cloned into the PUC19 plasmid through Gibson assembly, generating the final plasmid PUC19: PfENT1. PfENT1 mutations were generated using point mutation and verified by Sanger sequencing. The spacer targeting the FUI1 gene (5ʹ-[…]-3ʹ) was cloned into the pCas-BsaI plasmid to generate the pCas-FUI1 plasmid as described previously. […]
(§4) Cells were grown overnight in YPD medium to mid-log phase and harvested by centrifugation at 3000 × g for 5 min. […] After washing by vacuum filtration with 2 ml ice-cold 2% glucose, the radioactivity retained on the filter was incubated with 1 mL of ULTIMA GOLD scintillation fluid (Perkin Elmer, 77-15311). Counts were measured using a liquid scintillation analyzer (Perkin Elmer, Tri-Carb 5110TR). […]

[4] = target: T4, PfENT1 D287A (Plasmodium falciparum, UniProt Q8IDM6, D287A); experiment: Inosine uptake assay, yeast expressing PfENT1 D287A; type: cell-based; details: Fig. 3d, construct D287A
T4 construct: expressed in transfected cells; host or cells: S. cerevisiae BY4741, FUI1 deleted, PfENT1 mutant knock-in under the TEF1 promoter
Text: as §3, §4

T3 sequence (Q8IDM6 whole entry R291A): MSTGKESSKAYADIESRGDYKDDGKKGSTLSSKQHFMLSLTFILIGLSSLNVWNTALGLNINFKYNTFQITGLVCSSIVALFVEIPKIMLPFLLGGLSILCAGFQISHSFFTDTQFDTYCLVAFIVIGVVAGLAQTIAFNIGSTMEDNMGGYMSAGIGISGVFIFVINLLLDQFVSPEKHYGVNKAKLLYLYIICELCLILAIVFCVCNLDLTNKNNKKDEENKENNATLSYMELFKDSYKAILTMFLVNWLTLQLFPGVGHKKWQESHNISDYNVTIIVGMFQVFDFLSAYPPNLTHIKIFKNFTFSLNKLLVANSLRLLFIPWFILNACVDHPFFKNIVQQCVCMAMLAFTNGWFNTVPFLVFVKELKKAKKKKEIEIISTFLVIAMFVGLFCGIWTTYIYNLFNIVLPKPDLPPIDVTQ
T4 sequence (Q8IDM6 whole entry D287A): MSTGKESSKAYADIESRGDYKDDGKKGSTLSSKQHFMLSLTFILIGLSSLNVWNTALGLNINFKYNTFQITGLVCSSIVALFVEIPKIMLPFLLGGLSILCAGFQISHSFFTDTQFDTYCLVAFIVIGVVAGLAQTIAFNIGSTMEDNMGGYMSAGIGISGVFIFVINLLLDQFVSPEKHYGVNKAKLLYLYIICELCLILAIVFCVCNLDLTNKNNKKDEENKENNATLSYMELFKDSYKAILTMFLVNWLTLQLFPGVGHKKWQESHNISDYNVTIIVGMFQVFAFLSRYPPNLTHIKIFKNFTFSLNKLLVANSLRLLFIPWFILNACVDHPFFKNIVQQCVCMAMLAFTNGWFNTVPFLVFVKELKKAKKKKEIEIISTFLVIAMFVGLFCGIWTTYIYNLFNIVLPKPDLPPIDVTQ

OC[C@H]1O[C@@H](n2cnc3c(O)ncnc32)[C@H](O)[C@@H]1O [Inosine, inosine]
binding affinity (Kd) [1]: complete abolishment
binding affinity (Kd) [2]: completely lost inosine binding
Uptake of [3H]-inosine (Percentage of PfENT1 WT) [3]: lost the transport activity
Uptake of [3H]-inosine (Percentage of PfENT1 WT) [4]: abolished the transport activity
